Assay results published in ChEMBL document CHEMBL1137206, “A nonpeptidic sulfonamide inhibits the p53-mdm2 interaction and activates p53-dependent transcription in mdm2-overexpressing cells” (J Med Chem, 2004).

Target: Tumour suppressor p53/oncoprotein Mdm2 (Homo sapiens, UniProt P04637+Q00987)
Assay: In vitro inhibitory concentration against p53-mdm2 interaction
Type: protein assay

Sequence of Tumour suppressor p53/oncoprotein Mdm2 (P04637 whole entry): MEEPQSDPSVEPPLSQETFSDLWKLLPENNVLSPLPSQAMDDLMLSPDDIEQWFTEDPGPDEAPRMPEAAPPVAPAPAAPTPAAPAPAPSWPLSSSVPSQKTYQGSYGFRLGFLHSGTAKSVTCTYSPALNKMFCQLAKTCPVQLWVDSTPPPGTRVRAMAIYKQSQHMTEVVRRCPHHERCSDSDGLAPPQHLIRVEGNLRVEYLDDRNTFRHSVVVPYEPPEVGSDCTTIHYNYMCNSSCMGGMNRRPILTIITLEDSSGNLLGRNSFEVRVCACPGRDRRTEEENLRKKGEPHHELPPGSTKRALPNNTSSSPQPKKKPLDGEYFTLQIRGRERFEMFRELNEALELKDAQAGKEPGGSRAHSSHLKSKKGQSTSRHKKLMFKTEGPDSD
Sequence of Tumour suppressor p53/oncoprotein Mdm2 (Q00987 whole entry): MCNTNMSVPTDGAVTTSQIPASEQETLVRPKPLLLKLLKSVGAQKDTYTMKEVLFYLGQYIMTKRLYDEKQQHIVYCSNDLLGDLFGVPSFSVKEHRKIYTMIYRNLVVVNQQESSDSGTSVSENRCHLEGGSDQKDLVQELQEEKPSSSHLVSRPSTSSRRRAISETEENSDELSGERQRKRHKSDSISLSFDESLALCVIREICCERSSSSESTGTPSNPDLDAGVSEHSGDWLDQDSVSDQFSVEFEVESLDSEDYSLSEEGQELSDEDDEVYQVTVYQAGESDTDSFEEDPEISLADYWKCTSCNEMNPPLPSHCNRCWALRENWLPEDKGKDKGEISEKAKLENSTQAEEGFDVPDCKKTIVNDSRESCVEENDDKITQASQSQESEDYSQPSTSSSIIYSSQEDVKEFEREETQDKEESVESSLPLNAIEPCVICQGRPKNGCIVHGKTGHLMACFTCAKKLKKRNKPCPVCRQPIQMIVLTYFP

## CC(C)Oc1ccc(C(=O)NS(=O)(=O)c2ccc(NN=C3C(=O)N(c4ccccc4)N(c4ccccc4)C3=O)cc2)cc1
  IC50: 31.8 µM
